The target of data set [1] is T1, rat Oct1 (Rattus norvegicus, UniProt Q63089).
T1 sequence (Q63089 1-556): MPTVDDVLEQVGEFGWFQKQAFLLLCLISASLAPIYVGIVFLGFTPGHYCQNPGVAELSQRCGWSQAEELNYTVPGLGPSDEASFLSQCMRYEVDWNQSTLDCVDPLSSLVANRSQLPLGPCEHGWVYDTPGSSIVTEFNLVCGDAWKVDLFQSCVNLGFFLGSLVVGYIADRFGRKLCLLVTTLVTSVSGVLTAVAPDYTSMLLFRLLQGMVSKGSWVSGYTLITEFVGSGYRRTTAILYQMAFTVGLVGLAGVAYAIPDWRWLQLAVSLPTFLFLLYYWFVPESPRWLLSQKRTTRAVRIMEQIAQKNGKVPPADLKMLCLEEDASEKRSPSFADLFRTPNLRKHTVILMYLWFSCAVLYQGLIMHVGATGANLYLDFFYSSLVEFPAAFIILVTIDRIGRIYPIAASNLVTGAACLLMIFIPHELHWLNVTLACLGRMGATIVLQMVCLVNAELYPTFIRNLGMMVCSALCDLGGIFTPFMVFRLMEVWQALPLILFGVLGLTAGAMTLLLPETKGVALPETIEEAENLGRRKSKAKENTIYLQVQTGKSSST
Put plainly: Cellular transport assay, HEK-293 cells expressing rat Oct1. Conditions: Danshen phenolic acid at 100 μM final concentration, 10 min; rat Oct1-transfected vs mock cells.

Data set [2] deals with T2, human OATP2B1 (Homo sapiens, UniProt O94956).
T2 sequence (O94956 1-709): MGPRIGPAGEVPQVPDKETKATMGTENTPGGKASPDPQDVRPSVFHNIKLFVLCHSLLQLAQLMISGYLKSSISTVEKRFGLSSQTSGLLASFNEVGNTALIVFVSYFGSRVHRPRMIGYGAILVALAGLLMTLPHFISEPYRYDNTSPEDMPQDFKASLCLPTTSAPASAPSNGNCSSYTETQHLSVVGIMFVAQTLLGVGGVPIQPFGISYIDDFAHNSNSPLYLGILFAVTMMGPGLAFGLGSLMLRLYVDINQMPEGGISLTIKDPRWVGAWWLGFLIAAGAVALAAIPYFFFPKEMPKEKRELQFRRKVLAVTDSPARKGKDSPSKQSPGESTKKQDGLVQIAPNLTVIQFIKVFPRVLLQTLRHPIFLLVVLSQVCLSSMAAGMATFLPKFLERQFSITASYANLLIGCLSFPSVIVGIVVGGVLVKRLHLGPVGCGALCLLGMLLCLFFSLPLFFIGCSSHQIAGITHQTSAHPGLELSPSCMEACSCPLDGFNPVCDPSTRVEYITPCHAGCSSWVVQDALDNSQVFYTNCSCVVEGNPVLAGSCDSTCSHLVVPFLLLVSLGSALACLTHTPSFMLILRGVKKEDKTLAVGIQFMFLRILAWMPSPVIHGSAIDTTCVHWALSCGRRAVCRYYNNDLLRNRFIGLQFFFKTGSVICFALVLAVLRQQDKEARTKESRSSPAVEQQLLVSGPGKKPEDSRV
Nature of the data set: Cellular transport assay, HEK-293 cells expressing human OATP2B1. Conditions: Danshen phenolic acid at 100 μM final concentration, 10 min; human OATP2B1-transfected vs mock cells.

The target in data set [3] is T3, rat Octn2 (Rattus norvegicus, UniProt O70594).
T3 sequence (O70594 1-557): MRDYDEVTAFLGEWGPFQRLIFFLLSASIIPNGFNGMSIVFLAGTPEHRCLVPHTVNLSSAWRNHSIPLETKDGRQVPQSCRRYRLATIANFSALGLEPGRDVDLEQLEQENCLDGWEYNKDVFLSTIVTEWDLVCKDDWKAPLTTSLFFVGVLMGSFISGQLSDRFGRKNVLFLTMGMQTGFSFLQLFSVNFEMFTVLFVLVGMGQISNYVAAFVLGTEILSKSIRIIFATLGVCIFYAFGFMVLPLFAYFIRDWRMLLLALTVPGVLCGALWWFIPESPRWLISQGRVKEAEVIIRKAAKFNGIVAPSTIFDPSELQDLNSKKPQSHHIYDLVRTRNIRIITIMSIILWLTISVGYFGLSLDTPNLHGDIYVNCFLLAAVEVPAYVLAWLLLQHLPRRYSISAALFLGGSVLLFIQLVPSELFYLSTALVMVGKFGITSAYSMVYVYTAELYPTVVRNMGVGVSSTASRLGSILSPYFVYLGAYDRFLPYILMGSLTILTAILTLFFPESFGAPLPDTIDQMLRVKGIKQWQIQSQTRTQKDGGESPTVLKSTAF
Nature of the data set: Cellular transport assay, HEK-293 cells expressing rat Octn2. The settings on record: Danshen phenolic acid at 100 μM final concentration, 10 min; rat Octn2-transfected vs mock cells.

Data set [4] addresses T4, rat Pept2 (Rattus norvegicus, UniProt Q63424).
T4 sequence (Q63424 1-729): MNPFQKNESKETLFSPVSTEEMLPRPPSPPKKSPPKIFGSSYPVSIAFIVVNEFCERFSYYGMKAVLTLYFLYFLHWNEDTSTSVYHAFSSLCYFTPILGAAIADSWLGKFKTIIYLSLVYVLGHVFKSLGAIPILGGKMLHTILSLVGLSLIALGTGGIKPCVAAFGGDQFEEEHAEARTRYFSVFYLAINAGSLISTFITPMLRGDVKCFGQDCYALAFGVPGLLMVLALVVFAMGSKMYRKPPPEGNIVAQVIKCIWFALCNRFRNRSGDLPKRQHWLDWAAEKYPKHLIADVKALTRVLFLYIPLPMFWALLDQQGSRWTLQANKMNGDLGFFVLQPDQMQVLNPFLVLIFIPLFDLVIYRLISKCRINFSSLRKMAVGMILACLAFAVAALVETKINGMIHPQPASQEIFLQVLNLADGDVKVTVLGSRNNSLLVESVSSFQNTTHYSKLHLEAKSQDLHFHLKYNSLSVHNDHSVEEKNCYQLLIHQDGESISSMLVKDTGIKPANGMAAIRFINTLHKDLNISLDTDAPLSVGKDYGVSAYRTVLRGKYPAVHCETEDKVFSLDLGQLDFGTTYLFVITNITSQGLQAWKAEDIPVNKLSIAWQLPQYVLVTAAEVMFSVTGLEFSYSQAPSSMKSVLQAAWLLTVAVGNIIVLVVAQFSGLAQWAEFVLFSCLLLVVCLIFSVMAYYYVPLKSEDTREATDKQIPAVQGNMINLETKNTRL
Put plainly: Cellular transport assay, HEK-293 cells expressing rat Pept2. Conditions: Danshen phenolic acid at 100 μM final concentration, 10 min, incubation pH 6.0; rat Pept2-transfected vs mock cells.

Details of data set [5]: method as in Lu et al., 2008. The settings on record: ref Lu et al., 2008; cited from earlier work.

Consider `O=C(/C=C/c1ccc(O)c2c1[C@H](C(=O)O)[C@@H](c1ccc(O)c(O)c1)O2)O[C@H](Cc1ccc(O)c(O)c1)C(=O)O` [Lithospermic acid, lithospermic acid], for which the “TransportTC/TransportMC ratio (net transport ratio)” value (shortened to “TransportTC/TransportMC ratio”) in data set [1] is given as 1.18 ± 0.06; in data set [2] it was 1.16 ± 0.27; in data set [3], 0.95 ± 0.11; in data set [4] it was 0.85 ± 0.14.

Turning to `O=C(O)c1ccc(O)c(O)c1` [Protocatechuic acid, protocatechuic acid], the “TransportTC/TransportMC ratio” value in data set [1] stood at 1.19 ± 0.41; in data set [2] it was 1.36 ± 0.15; in data set [3] it was 0.91 ± 0.17; in data set [4], 1.21 ± 0.26. Further, the membrane permeability result in data set [5] is “fairly good”.

In the case of `O=C(/C=C/c1ccc(O)c(O)c1)O[C@H](Cc1ccc(O)c(O)c1)C(=O)O` [Rosmarinic acid, rosmarinic acid], in data set [5], the membrane permeability entry is listed as “poor”.

Regarding `O=C(O)Cc1c(/C=C/C(=O)O[C@H](Cc2ccc(O)c(O)c2)C(=O)O)ccc(O)c1O` [Salvianolic acid D, salvianolic acid D], the “TransportTC/TransportMC ratio” value is on record as 1.23 ± 0.54 in data set [1], 2.27 ± 1.16 in data set [2], 1.12 ± 0.22 in data set [3] and 1.88 ± 0.45 in data set [4]. The membrane permeability result in data set [5] is given as “poor”.

For the compound salvianolic acid B, the “TransportTC/TransportMC ratio” value in data set [1] is 0.66 ± 0.17; in data set [2] it was 1.32 ± 0.33; in data set [3] it was 1.25 ± 0.21; in data set [4], 0.94 ± 0.21.

The values are drawn from PMC9127186, “Molecular Basis Underlying Hepatobiliary and Renal Excretion of Phenolic Acids of Salvia miltiorrhiza Roots (Danshen)” (Frontiers in Pharmacology, 2022).
